Measured values reported in patent publication US20260103465A1, “GLYCOGEN SYNTHASE KINASE 3 INHIBITORS AND USES THEREOF” (The Broad Institute, Inc., priority 2023, published 2026).
Read-outs that look alike come from different tables or passages of the source.

Legend:
[1] = Human liver microsomal stability; format: in vitro ADME; conditions: human liver microsomes; Table 4
Summary of the method: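 Compound incubated at 1 µM with human liver microsomes for 60 min at 37 °C, in duplicate. Percent remaining derived from compound level at 60 min relative to 0 min. Controls: microsomes with NADPH and no compound; compound with microsomes lacking NADPH.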

[2] = tested on: MDR1-MDCK cell monolayers; test: MDR1/MDCK permeability assay; format: in vitro ADME; conditions: Table 4; for MDCK Permeability (MDR1-MDCK); Mean; Papp(A-B) (10^−6 cm/s): A to B; for MDCK Permeability (MDR1-MDCK); Mean; Papp(B-A) (10^−6 cm/s): B to A; for MDCK Permeability (MDR1-MDCK); Mean; P. Ratio(B-A/A-B) Efflux Ratio: Papp B-A/A-B
Summary of the method: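 Confluent MDR1-MDCK monolayers (7–11 days old), compound dosed at 5 μM in HBSSg (≤1% DMSO) apically or basolaterally, pH 7.4 both sides, receiver with 1% BSA, N=2. Both sides sampled at 120 min and quantified by LC-MS/MS; Papp in each direction, efflux ratio B-A/A-B and recovery reported.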

[3] = molecular target: T1, GSK3b (GST-full length GSK3b) (Homo sapiens, UniProt P49841); test: GSK3b TR-FRET kinase inhibition assay; format: biochemical
T1 construct: GST-full length GSK3b: [SignalChem G08-9G]; purchased SignalChem G08-9G
Summary of the method: (§1)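 IC50 derived from normalized 665/615 TR-FRET signal (Tb anti-pSer641 antibody, streptavidin-d2), read after EDTA stop. Reaction: 1 nM GST-full-length enzyme, 30 min compound pre-incubation, 100 min at ambient temperature in Tris pH 7.5 with 1% DMSO, 200 nM biotinylated primed glycogen synthase peptide, ATP 2 μM to 1 mM.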

[4] = molecular target: T2, GSK3a (GST-full length GSK3a) (Homo sapiens, UniProt P49840); test: GSK3a TR-FRET kinase inhibition assay; format: biochemical
T2 construct: GST-full length GSK3a [SignalChem G08-10G]; purchased SignalChem G08-10G
Summary of the method: as §1

[5] = 2 μM ATP, read-out: GSK3β TR-FRET 2 μM ATP GMean IC50
[6] = 4 μM ATP, read-out: GSK3α TR-FRET 4 μM ATP GMean IC50
[7] = 1 mM ATP, Table 4, read-out: GSK3β TR-FRET 1 mM ATP GMean IC50
[8] = 1 mM ATP, Table 4, read-out: GSK3α TR-FRET 1 mM ATP GMean IC50

T2 sequence (P49840 whole entry): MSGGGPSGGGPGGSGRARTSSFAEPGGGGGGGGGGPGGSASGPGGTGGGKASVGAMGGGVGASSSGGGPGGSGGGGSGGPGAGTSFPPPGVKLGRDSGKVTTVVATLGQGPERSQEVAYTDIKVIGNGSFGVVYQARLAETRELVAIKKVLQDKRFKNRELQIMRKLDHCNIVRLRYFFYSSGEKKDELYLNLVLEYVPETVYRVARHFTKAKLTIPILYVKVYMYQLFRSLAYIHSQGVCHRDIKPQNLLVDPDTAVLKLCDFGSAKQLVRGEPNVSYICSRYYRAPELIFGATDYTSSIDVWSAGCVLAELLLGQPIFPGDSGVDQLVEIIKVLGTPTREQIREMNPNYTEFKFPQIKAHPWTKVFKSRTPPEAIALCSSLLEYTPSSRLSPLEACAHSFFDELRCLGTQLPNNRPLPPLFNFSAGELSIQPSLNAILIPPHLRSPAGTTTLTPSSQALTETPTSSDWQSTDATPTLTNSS
T1 sequence (P49841 whole entry): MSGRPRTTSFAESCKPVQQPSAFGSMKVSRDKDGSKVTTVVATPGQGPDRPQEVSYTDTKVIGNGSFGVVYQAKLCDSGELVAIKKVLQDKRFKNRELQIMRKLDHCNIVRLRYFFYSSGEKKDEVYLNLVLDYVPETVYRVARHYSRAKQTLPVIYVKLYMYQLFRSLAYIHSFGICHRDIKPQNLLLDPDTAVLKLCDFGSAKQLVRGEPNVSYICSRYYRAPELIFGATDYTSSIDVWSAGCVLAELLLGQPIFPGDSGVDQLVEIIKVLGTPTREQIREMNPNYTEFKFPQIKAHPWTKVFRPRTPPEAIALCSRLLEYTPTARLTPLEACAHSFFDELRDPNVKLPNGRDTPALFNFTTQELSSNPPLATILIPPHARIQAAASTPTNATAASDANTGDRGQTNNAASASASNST

Structure (SMILES)	Microsome Stability (Human) (DMPK_BIIB); Mean; in vitro t1/2 [1] [min]	MDCK Permeability (MDR1-MDCK); Mean; Papp(A-B) (10^−6 cm/s) [2]	MDCK Permeability (MDR1-MDCK); Mean; Papp(B-A) (10^−6 cm/s) [2]	MDCK Permeability (MDR1-MDCK); Mean; P. Ratio(B-A/A-B) Efflux Ratio [2]	IC50 [3, 5] [nM]	IC50 [4, 6] [nM]	IC50 [3, 7] [nM]	IC50 [4, 8] [nM]
CCC1(c2cccc(O)c2)C2=C(CC(C)(C)CC2=O)Nc2ncc(F)cc21 (single isomer, unassigned) [Compound 1010A]	6.1	0.60 10^−6 cm/s	28 10^−6 cm/s	51	> 5000	> 5000		
CCC1(c2cccc(O)c2)C2=C(CC(C)(C)CC2=O)Nc2ncc(F)cc21 (single isomer, unassigned) [Compound 1010B]	11	0.80 10^−6 cm/s	39 10^−6 cm/s	48	≤ 100	≤ 100		
CCC1(c2cccc(C(C)C)c2)C2=C(CC(C)(C)CC2=O)Nc2ncccc21 (single isomer, unassigned) [Compound 1011B]	3.8	15 10^−6 cm/s	28 10^−6 cm/s	1.9	≤ 100	≤ 100		
CCC1(c2cccc(-c3cccnc3)c2)C2=C(CC(C)(C)CC2=O)Nc2ncccc21 (single isomer, unassigned) [Compound 1015A]	2.8	4.7 10^−6 cm/s	44 10^−6 cm/s	9.5	≤ 100	≤ 100		
CCC1(c2cccc(-c3ccccn3)c2)C2=C(CC(C)(C)CC2=O)Nc2ncccc21 (single isomer, unassigned) [Compound 1016A]	1.5	4.5 10^−6 cm/s	32 10^−6 cm/s	6.9	≤ 100	≤ 100		
CCC1(c2cccc(-c3ccncc3)c2)C2=C(CC(C)(C)CC2=O)Nc2ncccc21 (single isomer, unassigned) [Compound 1017A]	6.2	6.9 10^−6 cm/s	32 10^−6 cm/s	4.6	100 to 1000	≤ 100		

The remaining lines, values ahead:

Microsome Stability (Human) (DMPK_BIIB); Mean; in vitro t1/2 [1] [min]	MDCK Permeability (MDR1-MDCK); Mean; Papp(A-B) (10^−6 cm/s) [2]	MDCK Permeability (MDR1-MDCK); Mean; Papp(B-A) (10^−6 cm/s) [2]	MDCK Permeability (MDR1-MDCK); Mean; P. Ratio(B-A/A-B) Efflux Ratio [2]	IC50 [3, 5] [nM]	IC50 [4, 6] [nM]	IC50 [3, 7] [nM]	IC50 [4, 8] [nM]	Structure (SMILES)
4.8	4.2 10^−6 cm/s	39 10^−6 cm/s	9.5	≤ 100	≤ 100	1000 to 5000	100 to 1000	CCC1(c2cccc(-c3ccnn3C)c2)C2=C(CC(C)(C)CC2=O)Nc2ncccc21 (single isomer, unassigned) [Compound 1019A]
6.4	14 10^−6 cm/s	24 10^−6 cm/s	1.8	≤ 100	≤ 100	1000 to 5000	100 to 1000	CCC1(c2cccc(-c3ccncc3C)c2)C2=C(CC(C)(C)CC2=O)Nc2ncccc21 (single isomer, unassigned) [Compound 1020B]
3.2	3.0 10^−6 cm/s	27 10^−6 cm/s	9.0	≤ 100	≤ 100	1000 to 5000	100 to 1000	CCC1(c2cccc(-c3cn(C)nc3C)c2)C2=C(CC(C)(C)CC2=O)Nc2ncccc21 (single isomer, unassigned) [Compound 1023A]
